Test results reported in article PMC6153520, “Proteasome inhibition and mechanism of resistance to a synthetic, library-based hexapeptide” (Investigational New Drugs, 2018).
Where a SMILES comes first, the peptide text is derived from it. [ ]: non-standard residue; d: D form. The star is where a group is joined. His(τ-Bzl) = N[C@@H](Cc1cn(Cc2ccccc2)cn1)C(=O)O; Nle = CCCC[C@H](N)C(=O)O; NHBn = c1ccc(CN*)cc1; Bn = c1ccc(C*)cc1; OtBu = CC(C)(C)O*; tBu = CC(C)(C)*

Columns and labels:
[1] = test system: bortezomib-resistant THP1 cell lines; test: Growth inhibition assay, cross-resistance; type: cell-based, human; conditions: relative to THP1/WT; 72 h growth inhibition
Experimental: (§1) Human monocytic/macrophage THP1 cells (ATTC, Manassas, USA) were cultured in RPMI-1640 medium supplemented with 5% fetal calf serum, 20 mM HEPES, 2 mM glutamine and 100 μg/ml penicillin/ streptomycin at 5% CO2 and 37 °C. Cell cultures were seeded at a density of 3 × 10^5 cells/ml and refreshed twice weekly. […] Some specific experiments also included THP1/BTZ100 cells that were cultured in the absence of BTZ for 6 months (further designated as THP1/BTZ (−100) cells). Mouse thymoma EL4 and human multiple myeloma H929 cells were cultured in RPMI-1640 medium supplemented with 8% fetal calf serum and 100 μg/ml penicillin/streptomycin at 5% CO2 and 37 °C.
(§2) Evaluation of drug sensitivity was carried out as described before. Cells were seeded at an initial density of 1.25 × 10^5 cells/ml in individual wells of a 24-well plate containing up to 50 μl of drug solutions. Inhibition of cell growth was determined after 72 h of incubation at 37 °C by determining the number of viable cells […] using trypan blue exclusion. The drug concentration required to inhibit cell growth by 50% compared to untreated controls was defined as the IC50.

THP1/BTZ50 = test: Growth inhibition assay (72 h, trypan blue); type: cell-based, human; conditions: relative to IC50 in THP1/WT
Experimental: as §1, §2

THP1/BTZ200 = test: Growth inhibition assay (72 h, trypan blue); type: cell-based, human; conditions: relative to IC50 in THP1/WT
Experimental: as §1, §2

[2] = test system: caspase-like proteasome activity; test: Proteasome activity in THP1 cell extracts (fluorogenic substrate); type: biochemical, human; conditions: 1–100 μM, 1 h exposure
Experimental: (§3) Chymotrypsin-like, trypsin-like and caspase-like proteolytic activities of the proteasome were determined in freshly prepared cell lysates as described previously. Five million untreated or bortezomib-exposed THP1 cells were washed 3 times with ice-cold PBS and pelleted by centrifugation (5 min, 12,000 RPM, 4 °C). Cell pellets were then resuspended in an ATP-containing lysis buffer; 10 mM Tris-HCl buffer (pH 7.8) containing 5 mM ATP, 0.5 mM DTT and 5 mM MgCl2, and kept on ice for 10 min. For complete lysis, cells were sonicated (MSE sonicator, amplitude 7, for 3 × 5 s with 20 s time intervals at 4 °C) followed by centrifugation (5 min, 12,000 RPM, 4 °C) to remove cell debris. The supernatant was collected and protein concentration was determined using the Bio-Rad protein assay. […] The release of amc (7-amino-4-methyl-coumarin) was monitored online over a 2-h time period at 37 °C with 5 min intervals. Fluorescence was measured on a Tecan SpectraFluor apparatus (Giessen, The Netherlands) using excitation and emission wavelengths of 360 and 465 nm, respectively. Proteolytic activity was calculated from the slopes of the linear portion of the curves. All results were expressed as percentage relative to untreated THP1/WT cells (100%). […]

[3] = test system: trypsin-like proteasome activity; test: as above; type: biochemical, human; conditions: 1–100 μM, 1 h exposure
Experimental: as §3

[4] = biological target: T1, proteasome purified from bovine liver (Bos taurus, UniProt Q32KL2); test: 4A6 cleavage assay (MALDI-TOF); type: biochemical; conditions: 1 μg proteasome, 1 μg 4A6, pH 8.5, 45 °C, 16 h
T1 construct: Proteasome was purified from bovine liver as described previously; from tissue; host or cells: bovine liver
Experimental: Proteasome was purified from bovine liver as described previously. For digestion assays, 1 μg proteasome was incubated with 1 μg 4A6 in 50 μl of 50 mM Tris-HCl buffer pH 8.5 at 45 °C for 16 h. Subsequently, the reaction mixture was lyophilized and peptides purified using reversed-phase ZipTip®C18 tips (Millipore). The purified peptide mixture was mixed in a 1:1 ratio with 10 mg/ml 2,5-dihydroxybenzoic acid (DHB, Bruker Daltonik) matrix solution in 0.1% TFA and spotted onto a MALDI (matrix assisted laser desorption/ ionization) target plate. MALDI-TOF analysis was performed on an Autoflex, linear MALDI-TOF-MS (Bruker Daltonik GmbH, Bremen, Germany). Spectra were analyzed with flexAnalysis software (Bruker Daltonik).

[5] = biological target: T2, chymotrypsin-like proteasome activity (Homo sapiens, UniProt P28074); test: Proteasome-Glo cell-based assay in intact THP1 cells
T2 construct: chymotrypsin-like proteasome activity in intact THP1 cells after 1 h exposure; endogenous in cells; host or cells: THP1 (wild type)

THP1 cells = test: Growth inhibition with or without Ruthenium Red; type: cell-based, human; conditions: 72 h, with or without 25 μM Ruthenium Red
Experimental: as §2

THP1/BTZ100 = type: cell-based, human; conditions: 72 h
Experimental: as §1, §2

THP1/WT = type: cell-based, human
Experimental: as §1, §2

THP1/BTZ (−100) cells = type: cell-based, human; conditions: 72 h
Experimental: as §1, §2

## CCCC[C@H](NC(=O)[C@@H](NC(=O)[C@H](Cc1cn(Cc2ccccc2)cn1)NC(=O)[C@@H](NC(C)=O)[C@@H](C)OC(C)(C)C)[C@@H](C)OCc1ccccc1)C(=O)N[C@@H](CCC(=O)OC(C)(C)C)C(=O)NCC(=O)NCc1ccccc1 [4A6, Ac-Thr(tBu)-His(Bzl)-Thr(Bzl)-Nle-Glu(OtBu)-Gly-Bza] (Ac-T(tBu)[His(τ-Bzl)]T(Bn)[Nle]E(OtBu)G-NHBn)
[1]
  cross-resistance of bortezomib-resistant cell lines: up to 287 fold
THP1/BTZ50
  [Resistance Factor] THP1/BTZ50: 44
THP1/BTZ200
  [Resistance Factor] THP1/BTZ200: 287
[2]
  inhibitory effect on caspase-like activity: no inhibitory effect
[3]
  inhibitory effect on trypsin-like activity: no inhibitory effect
[4]
  proteolytic cleavage by purified proteasomes: predominantly cleaved at the P4-P5 position
[5]
  potency fold lower than BTZ, chymotrypsin-like proteasome activity: 28 fold
THP1 cells
  effect of Ruthenium Red on growth inhibitory activity (protection): no effect
THP1/BTZ100
  IC50: > 25 µM
THP1/BTZ100; relative to IC50 in THP1/WT
  [Resistance Factor] THP1/BTZ100: 117
THP1/WT; 72 h
  IC50: 0.26 ± 0.06 µM
THP1/WT; reference value in square brackets
  [Resistance Factor] THP1/WT: 1
THP1/BTZ (−100) cells
  IC50: 10 µM
